Assay results published in US20100015147A1 (priority 2001, published 2010).
Entries after “also recorded” stand apart in the source; their conditions may differ. Read-outs that look alike come from different tables or passages of the source.

Legend:
mammalian neuraminidase = conditions: cultures of human macrophagic cells; cited from earlier work
Swiss-Webster (SW) mice [1] = format: in vivo
Swiss-Webster (SW) mice [2] = assay: Hot-water-immersion tail-flick antinociception assays with neuraminidase inhibitors (temperature not given); format: in vivo
Swiss-Webster (SW) mice [3] = format: in vivo; remark: listed apart in the source
Swiss-Webster (SW) mice [4] = format: in vivo; conditions: for effect on low-dose κ-opioid-induced hyperalgesia, compared with CTX-B cotreatment: 10 ng/kg U-50,488H plus ultralow (pg/kg) dose of antagonist
[5] = test system: male dental-pain patients; conditions: cited from earlier work
Swiss-Webster (SW) mice [6] = conditions: low doses in naïve mice; cited from earlier work
mice = conditions: cited from earlier work

Molecule: O=S(=O)([O-])[O-].[Mg+2] [MgSO4]
- effect on mammalian neuraminidase activity (mammalian neuraminidase): potent inhibitory effects on mammalian neuraminidase activity

Molecule: O=S(=O)([O-])[O-].[Na+].[Na+] [Na2SO4]
- NLX-precipitated withdrawal hyperalgesia (Swiss-Webster (SW) mice [1]; mouse, in vivo): prevented NLX-precipitated withdrawal hyperalgesia
- effect on mammalian neuraminidase activity (mammalian neuraminidase): potent inhibitory effects on mammalian neuraminidase activity
- results of antinociception assays compared with oseltamivir (Swiss-Webster (SW) mice [2]; 3 μg/kg morphine plus 10 mg/kg Na2SO4): surprisingly similar
- development of tolerance (Swiss-Webster (SW) mice [2]; 10 mg/kg Na2SO4 plus 3 mg/kg morphine, daily injections for 5 days): prevented development of tolerance during daily injections for 5 days
- effect on morphine analgesia (Swiss-Webster (SW) mice [2]; chronic 10 mg/kg Na2SO4 plus 3 mg/kg morphine): enhanced analgesia

Molecule: CN1CC[C@]23c4c5ccc(O)c4O[C@H]2[C@@H](O)C=C[C@H]3[C@H]1C5 [morphine]
- time course of antinociceptive effect, morphine alone (Swiss-Webster (SW) mice [3]; 3 mg/kg morphine alone, 55° C.): sharply decreased after the first-hour peak
- analgesic effects after chronic morphine alone (tolerance) (Swiss-Webster (SW) mice [3]; daily 3 mg/kg morphine alone, 5 days): sharply decreased by 5 days
- response after chronic morphine only (Swiss-Webster (SW) mice [2]; morphine-only group, 5 days (FIG. 9)): marked hyperalgesia
- effect on tail-flick latency, opioid alone (Swiss-Webster (SW) mice [4]; 0.1 μg/kg morphine s.c. alone, control groups): marked hyperalgesia; also recorded: characteristic hyperalgesia
- duration of decreases in tail-flick latencies (hyperalgesia) after drug injection (Swiss-Webster (SW) mice [4]; 1 μg/kg morphine s.c. alone, 52° C., male mice): 4 to 5 h
- time after opioid injection to hyperalgesia (Swiss-Webster (SW) mice [4]; 1 mg/kg morphine s.c. alone, control group of female mice): ≤ 2 h
- decreases in tail-flick latencies (Swiss-Webster (SW) mice [4]; ca. 1 μg/kg morphine s.c. alone, 52° C.): 1 to 2 s

Molecule: Oc1ccc2c3c1O[C@H]1[C@@H](O)CC[C@@]4(O)[C@@H](C2)N(CC2CCC2)CC[C@]314 [nalbuphine]
- effect on pain within 1 h after injection ([5]; nalbuphine 5 mg i.v.): hyperalgesia

Molecule: C=CCN1CC[C@]23c4c5ccc(O)c4O[C@H]2C(=O)CC[C@@]3(O)[C@H]1C5 [naloxone]
- duration of NLX-evoked hyperalgesic response (Swiss-Webster (SW) mice [1]; chronic morphine (e.g., 10 mg/kg for 5-6 days), withdrawal, 10 μg/kg NLX): more than 5 h
- effect on nalbuphine-induced hyperalgesia ([5]; cotreatment with 0.5 mg naloxone): blocked
- effect on baseline tail-flick latency (Swiss-Webster (SW) mice [6]): did not alter the baseline tail-flick latency

Molecule: O=C1CC[C@@]2(O)[C@H]3Cc4ccc(O)c5c4[C@@]2(CCN3CC2CC2)[C@H]1O5 [naltrexone]
- effect on baseline tail-flick latency (Swiss-Webster (SW) mice [6]): did not alter the baseline tail-flick latency
- effect on low-dose κ-opioid-induced hyperalgesia, compared with CTX-B cotreatment (Swiss-Webster (SW) mice [4]): similar
- effect on low-dose κ-opioid-induced hyperalgesia, compared with CTX-B cotreatment (Swiss-Webster (SW) mice [4]; listed as NTX): comparable; also recorded: selectively blocked
- block of low-dose morphine hyperalgesia and unmasking of analgesia, compared with CTXB cotreatment (Swiss-Webster (SW) mice [4]; 1 μg/kg morphine plus 1 pg/kg (ultralow-dose) naltrexone): similar

Molecule: Oc1ccc2c3c1O[C@H]1c4[nH]c5c(c4C[C@@]4(O)[C@@H](C2)N(CC2CC2)CC[C@]314)C[C@@]1(O)[C@H]2Cc3ccc(O)c4c3[C@@]1(CCN2CC1CC1)[C@H]5O4 [nor-binaltorphimine]
- effect on low-dose κ-opioid-induced hyperalgesia, compared with CTX-B cotreatment (Swiss-Webster (SW) mice [4]): comparable; also recorded: selectively blocked; also recorded: similar

Molecule: CCOC(=O)C1=C[C@@H](OC(CC)CC)[C@H](NC(C)=O)[C@@H](N)C1 [oseltamivir]
- NLX-precipitated withdrawal hyperalgesia (Swiss-Webster (SW) mice [1]; chronic cotreatment with morphine plus oseltamivir): prevented development of NLX-precipitated withdrawal hyperalgesia
- time to development of morphine tolerance after withdrawal of oseltamivir (Swiss-Webster (SW) mice [2]; FIG. 10): ≤ 1 days
- development of opioid tolerance (Swiss-Webster (SW) mice [2]; chronic cotreatment with morphine plus oseltamivir (FIGS. 8 and 9)): attenuates development of opioid tolerance
- development of opioid tolerance (Swiss-Webster (SW) mice [2]; chronic oseltamivir plus morphine for 3 days (FIG. 8)): prevents development of opioid tolerance
- effect on analgesic potency of higher doses of morphine (Swiss-Webster (SW) mice [2]; cotreatment with oseltamivir, male mice (FIG. 7)): markedly enhances the analgesic potency
- effect on low-dose morphine-induced hyperalgesia (Swiss-Webster (SW) mice [2]; morphine plus oseltamivir s.c., male mice (FIG. 6)): selectively blocks; also recorded: blocks low-dose, morphine-induced hyperalgesia
- effect of adding oseltamivir to chronic morphine-tolerant mice (Swiss-Webster (SW) mice [2]; oseltamivir added for 1 day (FIG. 10)): restores prominent analgesia
- morphine analgesia after chronic cotreatment (Swiss-Webster (SW) mice [2]; oseltamivir plus morphine, 5 days (FIG. 9)): still show prominent morphine (Mor) analgesia

Molecule: dynorphin
- effect on tail-flick latency (mice; dynorphin 0.5 μg/kg s.c., tested at 90 min post-injection): thermal hyperalgesia
- effect on tail-flick latency (mice; dynorphin 50 μg/kg): analgesia
